We go through 18 compounds from patent US9453031B2, “Chemical entities” (Fundación Centro Nacional de Investigaciones Oncológicas …, priority 2013, dated 2016).

For test [1], the target named is T1, ATR (Homo sapiens (Human), UniProt Q13535). Briefly: Cellular ATR inhibition, pChk1 Ser345 after UV mimetic 4NQO. It counts as cell-based. Conditions: HT-29, read-out: UV mimetic inhibition of CHK1P at 10 μM (%); 10 μM compound, 3 μM 4NQO, HT29 cells. An excerpt:
(§1) ATM and ATR have distinct and overlapping responses to DNA damage. They must participate together and responses must be coordinated. Both pathways may be activated by ionizing radiation, and UV. As UV treatment is not practical for use in a high throughput cell assay, the UV mimetic 4NQO (Sigma) was chosen to activate the ATR and ATM DNA damage response pathway.
(§2) Chk1, a downstream protein kinase of ATR, has a key role in DNA damage checkpoint control, as well as Chk2 downstream of ATM. […] This assay measures a decrease in phosphorylation of Chk1 (Ser 345) and […] in HT29 colon adenocarcinoma cells following treatment with compound and the UV mimetic 4NQO. Compounds at 1 mM were created by diluting in 100% DMSO and then diluted 1:100 into assay media (RPMI, 10% FCS, 1% glutamine). Cells were plated in 6 well Costar plates at 5×10^5 cells per mL in 2 mL RPMI, 10% FCS, 1% glutamine and grown for 24 hrs. Following addition of compound the cells were incubated for 60 minutes. A final concentration of 3 μM 4NQO (prepared in 100% DMSO) was then added and the cells incubated for a further 60 mins. The cells are lysed and pChk1 Ser345 and pCHK2 Thr68 (Cell Signaling Technology, #2661) versus total CHK1 and CHK2 (Santa Cruz Biotechnology, se-5278) respectively has analysed by western blot as described above. The percentage of phosphorylated CHK1 versus total CHK1 or p-CHK2 versus total CHK2 in cells treated with 4NQO was taken as hundred percent of phosphorylation. The percentage of CHK1 or CHK2 phosphorylation is finally plotted against concentration for each compound and EC50s for intracellular ATR inhibition are calculated using ActivityBase from IDBS.

The next test concerns the target ATM (Homo sapiens (Human), UniProt Q13315). The test is described as follows: Cellular ATM inhibition, pCHK2 Thr68 after UV mimetic 4NQO. It is filed as cell-based. Conditions: HT-29, read-out: UV mimetic inhibition of CHK2P at 10 μM (%); 10 μM compound, 3 μM 4NQO, HT29 cells.
From the text: as §1, §2

Test [2] has as its target T1, ATR. Briefly: Cellular ATR inhibition, western blot of CHK1(S345) phosphorylation in hydroxyurea treated cells. Conditions: HT29 cells. It is filed as cell-based. The method, then:
In addition to the selective system described above, Example compounds presented here were screened for their ability to inhibit intracellular ATR using a western blot assay to detect phosphorylation of the ATR substrate CHK1(S345) in hydroxyurea treated cells. HT29 cells are plated at 500,000 cells per well in 6-well plates in RPMI media (Sigma R6504) supplemented with 10% foetal bovine serum (Sigma F7524), Penicillin/Streptomycin solution diluted 1:100 (Gibco 15070-063), and fungizone (Gibco, 15290-018), and allowed to adhere overnight at 37° C. in 5% CO2. Compounds are then added to the cell media from a final concentration of 10 μM in 3-fold serial dilutions and the cells are incubated at 37° C. in 5% CO2. After 15 min, hydroxyurea (Sigma H8627) is added to a final concentration of 2.5 mM. After 30 min of treatment with hydroxyurea, the cells are washed in PBS, lysed adding 50 μl of in protein lysis buffer (50 mM Tris pH 7.5, 150 mM NaCl, 1% IGEPAL CO-630 (Sigma, Ref. 542334-100G-A), Phospho Stop (Roche, Ref. 04906837001) and Complete Mini EDTA free (Roche, Ref. 11836170001)). The protein content of the lysates was determined by the modified method of Bradford (Sigma, Ref. B6916). The proteins were resolved by SDS-PAGE and transferred to nitrocellulose membrane (VWR International Eurolab, Ref. 732-4007). The membranes were incubated overnight at 4° C. with antibodies specific for total CHK1 (Santa Cruz Biotechnology, sc-8404), phosphoserine-345 CHK1 (Cell Signaling Technology #2348) they were washed and then incubated with IRDye800 conjugated anti-mouse (Pierce/Cultek, 35521) and Alexa Fluor 680 goat anti-rabbit IgG secondary antibodies (Invitrogen, A21076). The bands were visualized and quantified using an Odyssey infrared imaging system (Li-Cor Biosciences). The percentage of phosphorylated CHK1 vs total CHK1 in cells treated with hydroxyurea was taken as hundred percent of phosphorylation. The percentage of CHK1 phosphorylation is finally plotted against concentration for each compound and EC50s for intracellular ATR inhibition are calculated using ActivityBase from IDBS.

A further test addresses PI3K (p110α/p85α) (Homo sapiens (Human), UniProt P42336). The test is described as follows: PI3K alpha activity assay (ADP Hunter Plus). Conditions: 50 μM ATP, 30 μM PIP2; read-out: PI3Kα IC50. It counts as biochemical. How it is done: The kinase activity was measured by using the commercial ADP Hunter™ Plus assay available from DiscoveRx (#33-016), which is a homogeneous assay to measure the accumulation of ADP, a universal product of kinase activity. […] The reaction was carried out for 1 hour at 25° C. Reagent A and B were sequentially added to the wells and plates were incubated for 30 min at 37° C. Fluorescence counts were read in a Victor instrument (Perkin Elmer) with the recommended settings (544 and 580 nm as excitation and emission wavelengths, respectively).

A further test concerns the target mTOR (Homo sapiens (Human), UniProt P42345). Briefly: mTOR activity assay (LanthaScreen). It is filed as biochemical. The method, then: The enzymatic mTOR activity was measured using a LanthaScreen™ kinase activity assay (Invitrogen). The enzyme was purchased from Invitrogen (PV4754), as well as the GFP-labelled substrate (4EBP1-GFP; PV4759) and the Tb-antip4EBP1(pThr46) antibody (PV4757). The assay was performed in 50 Mm HEPES buffer, pH 7.5, containing 1.5 mM MnCl2, 10 mM MgCl2, 1 mM EGTA, 2.5 mM DTT and 0.01% Tween-20. The concentration of the assay components were the following: 0.24 nM mTOR kinase, 400 nM 4EBP1-GFP, […] and serial dilutions of the compound (inhibitor) to be evaluated. After 1 h incubation at room temperature, 20 mM EDTA was used to stop the reaction and terbium-labelled antibody (4 nM) added to detect phosphorylated product. The antibody associates with the phosphorylated product resulting in an increased TR-FRET value. The TR-FRET value (a dimensionless number) was calculated as the ratio of the acceptor signal (GFP, emission at 520 nm) to the donor signal (terbium, emission at 495 nm).

A further test has as its target DNA-PK (Homo sapiens (Human), UniProt P78527). Briefly: DNAPK activity assay (ADP Hunter Plus). It is filed as biochemical. Conditions: 75 μM ATP. The method, then: The kinase activity was measured by using the commercial ADP Hunter™ Plus assay available from DiscoveRx (#90-0083), which is a homogeneous assay to measure the accumulation of ADP, a universal product of kinase activity. The enzyme, DNA-PK was purchased from Promega (#V5811). The assay was done following the manufacturer recommendations with slight modifications: Mainly the kinase buffer was replace by 15 mM HEPES, pH 7.5, 10 mM MgCl2, 20 mM NaCl, 1 mM EGTA, 0.1 mg/mL BGG, 0.02% Tween 20. The DNA-PK was assayed in a titration experiment to determine the optimal protein concentration for the inhibition assay. To calculate the […] of the Compounds, serial 1:3 dilutions of the compounds were added to the enzyme at a fixed concentration (2 U/μL). The enzyme was preincubated with the inhibitor and 200 μM DNA substrate and then ATP was added to a final 75 μM concentration. Reaction was carried out for 1 hour at 37° C. Reagent A and B were sequentially added to the wells and plates were incubated for 30 min at RT. Fluorescence counts were read in a EnVision instrument (Perkin Elmer) with the recommended settings (550 and 590 nm as excitation and emission wavelengths, respectively).

PI3K (p110α/p85α), sequence (P42336 whole entry): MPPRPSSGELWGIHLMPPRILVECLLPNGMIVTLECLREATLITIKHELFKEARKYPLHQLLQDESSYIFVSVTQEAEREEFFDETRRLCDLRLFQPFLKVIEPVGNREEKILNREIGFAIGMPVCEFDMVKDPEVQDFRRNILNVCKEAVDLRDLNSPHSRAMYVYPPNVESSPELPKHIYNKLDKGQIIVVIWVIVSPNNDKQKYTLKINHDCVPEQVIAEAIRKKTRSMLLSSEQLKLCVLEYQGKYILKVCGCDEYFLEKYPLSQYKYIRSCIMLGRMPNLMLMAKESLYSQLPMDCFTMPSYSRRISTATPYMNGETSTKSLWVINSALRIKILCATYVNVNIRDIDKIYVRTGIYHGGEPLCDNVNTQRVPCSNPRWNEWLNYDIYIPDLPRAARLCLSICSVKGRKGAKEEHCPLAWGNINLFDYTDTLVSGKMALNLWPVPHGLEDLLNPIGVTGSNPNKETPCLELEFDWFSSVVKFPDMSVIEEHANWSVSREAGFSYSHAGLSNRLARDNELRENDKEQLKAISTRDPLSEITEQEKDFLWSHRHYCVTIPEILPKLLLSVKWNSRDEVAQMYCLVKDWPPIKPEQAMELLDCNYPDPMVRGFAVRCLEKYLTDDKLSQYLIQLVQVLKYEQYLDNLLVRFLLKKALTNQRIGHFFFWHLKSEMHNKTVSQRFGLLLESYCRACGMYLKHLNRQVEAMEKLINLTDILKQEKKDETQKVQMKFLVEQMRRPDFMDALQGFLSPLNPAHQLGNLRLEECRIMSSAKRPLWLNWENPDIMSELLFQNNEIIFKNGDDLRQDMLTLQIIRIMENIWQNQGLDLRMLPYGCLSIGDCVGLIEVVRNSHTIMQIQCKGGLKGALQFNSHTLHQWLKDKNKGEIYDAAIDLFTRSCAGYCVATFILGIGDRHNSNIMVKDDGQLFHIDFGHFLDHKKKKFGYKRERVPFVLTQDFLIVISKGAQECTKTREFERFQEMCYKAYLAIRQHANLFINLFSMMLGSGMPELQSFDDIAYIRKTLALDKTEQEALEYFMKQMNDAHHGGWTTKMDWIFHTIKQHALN
PI3K (p110α/p85α), sequence (P27986 whole entry partner): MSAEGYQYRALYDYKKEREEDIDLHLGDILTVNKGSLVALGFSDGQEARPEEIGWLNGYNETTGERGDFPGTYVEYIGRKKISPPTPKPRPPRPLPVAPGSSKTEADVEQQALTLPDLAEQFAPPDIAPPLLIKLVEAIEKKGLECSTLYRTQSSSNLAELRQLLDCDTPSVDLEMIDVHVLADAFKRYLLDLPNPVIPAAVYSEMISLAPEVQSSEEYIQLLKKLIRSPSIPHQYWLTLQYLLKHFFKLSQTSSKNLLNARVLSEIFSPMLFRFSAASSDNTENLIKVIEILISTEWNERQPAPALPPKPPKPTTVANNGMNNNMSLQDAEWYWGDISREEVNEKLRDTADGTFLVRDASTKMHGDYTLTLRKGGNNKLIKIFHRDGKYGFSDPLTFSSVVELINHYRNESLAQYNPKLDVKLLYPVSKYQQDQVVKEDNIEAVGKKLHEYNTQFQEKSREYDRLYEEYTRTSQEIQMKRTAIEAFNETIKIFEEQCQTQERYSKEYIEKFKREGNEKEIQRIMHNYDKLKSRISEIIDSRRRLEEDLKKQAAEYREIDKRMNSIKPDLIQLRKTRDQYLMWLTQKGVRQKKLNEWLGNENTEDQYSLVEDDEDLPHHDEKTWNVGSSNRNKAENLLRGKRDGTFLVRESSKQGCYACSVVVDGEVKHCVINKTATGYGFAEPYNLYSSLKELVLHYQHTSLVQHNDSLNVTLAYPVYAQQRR
mTOR, sequence (P42345 1360-2549): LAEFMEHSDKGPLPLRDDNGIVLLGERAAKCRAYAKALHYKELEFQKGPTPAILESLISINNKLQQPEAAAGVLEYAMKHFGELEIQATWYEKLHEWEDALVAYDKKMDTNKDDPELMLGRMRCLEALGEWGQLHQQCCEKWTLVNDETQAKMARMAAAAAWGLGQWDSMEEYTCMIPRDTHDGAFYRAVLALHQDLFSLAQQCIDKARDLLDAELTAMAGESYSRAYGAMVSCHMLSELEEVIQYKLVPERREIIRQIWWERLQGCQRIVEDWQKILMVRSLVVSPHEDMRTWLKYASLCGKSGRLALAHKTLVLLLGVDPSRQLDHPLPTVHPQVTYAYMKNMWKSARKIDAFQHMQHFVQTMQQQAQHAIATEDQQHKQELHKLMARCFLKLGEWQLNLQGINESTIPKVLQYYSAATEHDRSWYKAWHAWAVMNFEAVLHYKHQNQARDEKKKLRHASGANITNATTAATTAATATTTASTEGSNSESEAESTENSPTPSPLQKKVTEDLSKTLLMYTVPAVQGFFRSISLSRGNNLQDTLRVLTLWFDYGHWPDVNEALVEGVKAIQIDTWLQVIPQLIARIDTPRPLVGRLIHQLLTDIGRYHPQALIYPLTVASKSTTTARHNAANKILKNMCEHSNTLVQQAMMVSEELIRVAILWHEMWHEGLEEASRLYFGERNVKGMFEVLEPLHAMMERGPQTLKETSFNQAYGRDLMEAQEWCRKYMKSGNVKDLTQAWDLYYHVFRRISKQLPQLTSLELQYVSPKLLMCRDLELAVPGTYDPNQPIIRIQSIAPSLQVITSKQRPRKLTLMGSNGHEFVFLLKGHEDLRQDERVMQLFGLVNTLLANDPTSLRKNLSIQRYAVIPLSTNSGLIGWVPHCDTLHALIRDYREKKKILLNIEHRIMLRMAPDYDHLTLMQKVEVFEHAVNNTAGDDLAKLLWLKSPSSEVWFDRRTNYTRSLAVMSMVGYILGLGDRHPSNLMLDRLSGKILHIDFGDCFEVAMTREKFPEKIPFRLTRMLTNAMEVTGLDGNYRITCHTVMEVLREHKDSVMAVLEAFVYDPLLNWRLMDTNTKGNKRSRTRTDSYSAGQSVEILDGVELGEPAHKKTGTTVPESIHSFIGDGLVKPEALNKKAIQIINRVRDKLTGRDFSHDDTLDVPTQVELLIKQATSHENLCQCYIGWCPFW

As for `C[C@@H]1CN(CC(=O)Nc2ccc3c(c2)Cc2cccc(-c4cc(=O)cc(N5CCOCC5)o4)c2S3)C[C@H](C)O1` [ATM inhibitor KU-60019, reference compound], the inhibition at 10 µM on ATR [1] worked out at 38%; at ATM, 99%.
`O=S(=O)(Cc1nc(-c2cccc3[nH]ccc23)nc2c1OCC1COCCN21)C(F)(F)F` (centres unmarked) [Example 5] yielded an EC50 at ATR [2] (hydroxyurea 2.5 mM) of 0.1 to 1 µM. The inhibition at 10 µM on ATR [1] worked out at 98%; at ATM, 0%.
On ATR [2] (hydroxyurea 2.5 mM), `CS(=O)(=O)C1(c2nc(-c3cccc4[nH]ccc34)nc3c2OC[C@H]2COCCN32)CCOCC1` [Example 10] returned a concentration for a half-maximal effect (EC50) of 0.1 to 1 µM. Also, the inhibition at 10 µM at ATR [1] was 95%; at ATM it was 25%.
`CNc1nc2ccc(C#N)cc2n1-c1nc2c(c(C(C)(C)S(C)(=O)=O)n1)OC[C@@H]1COCCN21` [Example 114] had an EC50 on ATR [2] (hydroxyurea […]) of over 1 µM. Also, the values for the IC50 on PI3K (p110α/p85α), against mTOR and on DNA-PK were 50 µM, 10 µM and 10 µM, respectively.
`CS(=O)(=O)C1(c2nc(-c3ccc(F)c4[nH]ccc34)nc3c2OC[C@@H]2COCCN32)CCOCC1` [Example 106] came in with a half-maximal effective concentration (EC50) on ATR [2] (hydroxyurea 2.5 mM) of over 1 µM. Further, the results for the concentration for half-maximal inhibition (IC50) at PI3K (p110α/p85α), against mTOR and at DNA-PK were 50 µM, 10 µM and 1.16 µM, respectively.
In the same order, the values of `CS(=O)(=O)C1(c2nc(-c3cccc4[nH]ccc34)nc3c2OC[C@@H]2COCCN32)CC1` [Example 6] are 0.1 to 1 µM, 4.5 µM, 0.558 µM and 4.52 µM.
In the same order, the values of `COc1cc(-c2nc3c(c(C4(S(C)(=O)=O)CC4)n2)OC[C@@H]2COCCN32)c2cc[nH]c2c1` [Example 75] are 0.1 to 1 µM, 2.52 µM, 0.093 µM and 1.83 µM.
Regarding `Cc1cc2c(-c3nc4c(c(C(C)(C)S(C)(=O)=O)n3)OC[C@@H]3COCCN43)cccc2[nH]1` [Example 103], on ATR [2] (hydroxyurea 2.5 mM), the EC50 fell in the range of 0.1 to 1 µM. The figures for the IC50 on PI3K (p110α/p85α), on mTOR and at DNA-PK were 3.16 µM, 0.058 µM and 10 µM, respectively.
Consider `CNc1nc2cc(Cl)ccc2n1-c1nc2c(c(C3(S(C)(=O)=O)CC3)n1)OC[C@@H]1COCCN21` [Example 86], for which, at ATR [2] (hydroxyurea […]), the EC50 was over 1 µM. The figures for the IC50 on PI3K (p110α/p85α), on mTOR and at DNA-PK were 50 µM, 3.41 µM and 10 µM, respectively.
In turn, `CS(=O)(=O)C1(c2nc(-c3cc(F)cc4[nH]ccc34)nc3c2OC[C@@H]2COCCN32)CC1` [Example 74] showed a concentration giving a half-maximal response (EC50) on ATR [2] (hydroxyurea 2.5 mM) of 0.1 to 1 µM. In addition, the IC50 on PI3K (p110α/p85α) amounted to 2.24 µM; against mTOR, 0.152 µM; at DNA-PK it was 0.989 µM.
Compound `CNc1nc2cc(Cl)ccc2n1-c1nc2c(c(C(C)(C)S(C)(=O)=O)n1)OC[C@@H]1COCCN21` [Example 80] gave a half-maximal effective concentration (EC50) at ATR [2] (hydroxyurea […]) of over 1 µM. In addition, the IC50 was determined as 13.1 µM at PI3K (p110α/p85α), 0.501 µM at mTOR and 10 µM on DNA-PK.
Turning to `CS(=O)(=O)C1(c2nc(-c3cc(C(F)(F)F)cc4[nH]ccc34)nc3c2OC[C@@H]2COCCN32)CC1` [Example 108], at ATR [2] (hydroxyurea 2.5 mM), the EC50 was in the range of 0.1 to 1 µM. In addition, the IC50 on PI3K (p110α/p85α) is 15.4 µM; against mTOR, 0.579 µM; at DNA-PK, 1.75 µM.
For `CNc1nc2ccccc2n1-c1nc2c(c(C3(S(C)(=O)=O)CCC3)n1)OC[C@@H]1COCCN21` [Example 92], in that order: under 0.1 µM, 2.75 µM, 1.24 µM and 6.15 µM.
Compound `CS(=O)(=O)C1(c2nc(-c3cc(C(F)(F)F)cc4[nH]ccc34)nc3c2OC[C@@H]2COCCN32)CCOCC1` [Example 105] registered a concentration giving a half-maximal response (EC50) on ATR [2] (hydroxyurea 2.5 mM) of 0.1 to 1 µM. The values for the IC50 on PI3K (p110α/p85α), at mTOR and on DNA-PK were 28.9 µM, 1.99 µM and 10 µM, respectively.
For `CS(=O)(=O)C1(c2nc(-c3ccnc4[nH]ccc34)nc3c2OC[C@@H]2COCCN32)CCOCC1` [Example 30], in that order: 0.1 to 1 µM, 2.5 µM, 4.68 µM and 25 µM.
At ATR [2] (hydroxyurea […]), `CNc1nc2cc(F)ccc2n1-c1nc2c(c(C(C)(C)S(C)(=O)=O)n1)OC[C@@H]1COCCN21` [Example 82] showed a half-maximal effective concentration (EC50) of 0.1 to 1 µM. Also, the concentration for half-maximal inhibition (IC50) at PI3K (p110α/p85α) came to 5.6 µM; against mTOR, 1.59 µM; on DNA-PK, 10 µM.
In turn, `CNc1nc2ccccc2n1-c1nc2c(c(C3(S(C)(=O)=O)CC3)n1)OC[C@@H]1COCCN21` [Example 66] came in with an EC50 on ATR [2] (hydroxyurea 2.5 mM) of 0.1 to 1 µM. Besides, the figures for the 50% inhibitory concentration (IC50) on PI3K (p110α/p85α), against mTOR and on DNA-PK were 7.17 µM, 0.854 µM and 2.41 µM, respectively.
`CNc1nc2ccc(Cl)cc2n1-c1nc2c(c(C(C)(C)S(C)(=O)=O)n1)OC[C@@H]1COCCN21` [Example 81]: on ATR [2] (hydroxyurea […]), the EC50 was over 1 µM. For the same compound, the IC50 on PI3K (p110α/p85α) was determined as 50 µM; at mTOR, 5.55 µM; at DNA-PK, 10 µM.

The term inhibition denotes the drop in the measured response relative to a control, in per cent. A word on the EC50: it is the concentration giving half of the maximal effect. Low values mean a more potent agent, high ones a less potent agent. As a reminder, the IC50 is the midpoint of a concentration-inhibition curve.
